Literature values as cited in patent publication US20140044780A1, “Extended-Release Levetiracetam and Method of Preparation” (PharmTak, Inc., priority 2012, published 2014).

- Solubility in water: 104 g/100 mL
Structure (SMILES): CC[C@@H](C(N)=O)N1CCCC1=O (single isomer, unassigned) [Levetiracetam]
